# Experimental data taken from patent publication US20260315609A1, “MIXED VASOPRESSIN RECEPTOR AGONIST-ANTAGONIST FOR TREATING END-STAGE LIVER DISEASE AND COMPLICATIONS ASSOCIATED THEREOF” (FERRING B.V., priority 2022, published 2026).
# Like-named read-outs stand apart in the source and are kept apart here. Starred links: 1 amine or outer side, 2 acyl side, 3 side chain; linkers in the order of their positions; H or OH if unused. Positions of bridges follow the written chain, without caps; N, C: chain ends. Non-standard residues stand in square brackets, D forms with d. Residues, ends and D or L forms follow the SMILES beside them. Chains are numbered I, II in the order given. *: point of attachment. isoGln = NC(=O)[C@H](CCC(=O)[*:2])N[*:1]; εLys = N[C@@H](CCCCN[*:1])C(=O)[*:2]; Dab = NCC[C@H](N)C(=O)O; PhAc = O=C(Cc1ccccc1)*
# Legend:
# [1] = M1 formation after IV and SC (bolus) injection in healthy rats; details: in vivo, s.c. (bolus) injection, rat
# Excerpt: A similar study in healthy rats was used to evaluate the differences between metabolite formation of Compound 1 after IV bolus and SC (bolus) injection.
# [2] = Safety and tolerability in healthy rats; assay type: in vivo, rat
# Experimental: Rat models were used as a model to assess PK/PD of Compound 1.
# Four adult male Sprague Dawley rats were catheterized via the carotid artery (for blood collection). […] Blood samples were collected at nominal times of 5, 10, 20, 40, 60, 90, 120, 180, 240, and 300 min after administration using an automated blood sampling system as described above. Plasma was prepared from whole blood using K2EDTA as anticoagulant. Subsequent bioanalysis of samples included compound extraction and plasma concentration determination using standard LC/MS methods.
# The study was performed using six adult male Sprague Dawley rats, aged ~11 weeks. The pressure catheter was a polyurethane tubing that extended out of the device body and was inserted into the lower abdominal aorta. A postoperative injection of analgesia (flunixin, 5 mg per animal; Finadyne®, Schering-Plough) was given once immediately after implantation, and once at an interval of 24 h. The surgical wounds were disinfected with povidone iodine (Vétédine®, Vetoquinol SA) for 4 consecutive days. After surgery, the animals recovered for ~2 weeks before first study administration (day 0).
# On the days of administration, animals were examined before and immediately after administration, and at least once after dosing (after the ≥4-h analysis time point) to detect any clinical signs or reaction to administration. A full clinical examination was performed weekly.
# [3] = Excretion of Compound 1 in urine of healthy subjects; assay type: in vivo, human; details: for dose excreted: human, urine, read-out: fraction of dose excreted unchanged in urine
# Experimental: (§1) Urinalysis was performed locally by means of a dip-stick test. […] In case any result of the dipstick was abnormal and clinically significant, a new urine test was to be performed. If the abnormal result was confirmed, further examination could be initiated at the discretion of the Investigator. Clinically significant abnormal findings were reported as AEs. The metabolite pattern of Compound 1 in plasma and urine were measured.
# In some instances, endpoints of the study were: vital signs (e.g., supine blood pressure, pulse, and body temperature), electrocardiogram (ECG) (e.g., intervals, rhythm, and morphology), cardiac function (e.g., cardiac output using echocardiography), peripheral blood flow/tissue perfusion (e.g., by skin color), venous blood gases (e.g., lactate), urinary output, clinical chemistry, hematology, hemostasis, and urinalysis, adverse events (AEs) (e.g., type, frequency, and intensity), pharmacokinetics (e.g., AUC, AUCt, AUCτ, % Extrap AUC, Cmax, tmax, CL, Vz, t1/2, MRT, Vss, F, Ae, and CLR), and metabolite pattern in plasma and urine.
# rV1b receptor = molecular target: T1, rV1b receptor (Rattus norvegicus, UniProt P48974); assay: Luciferase reporter gene assay, rat V1b; details: read-out: % MPE
# T1 sequence (P48974 1-425): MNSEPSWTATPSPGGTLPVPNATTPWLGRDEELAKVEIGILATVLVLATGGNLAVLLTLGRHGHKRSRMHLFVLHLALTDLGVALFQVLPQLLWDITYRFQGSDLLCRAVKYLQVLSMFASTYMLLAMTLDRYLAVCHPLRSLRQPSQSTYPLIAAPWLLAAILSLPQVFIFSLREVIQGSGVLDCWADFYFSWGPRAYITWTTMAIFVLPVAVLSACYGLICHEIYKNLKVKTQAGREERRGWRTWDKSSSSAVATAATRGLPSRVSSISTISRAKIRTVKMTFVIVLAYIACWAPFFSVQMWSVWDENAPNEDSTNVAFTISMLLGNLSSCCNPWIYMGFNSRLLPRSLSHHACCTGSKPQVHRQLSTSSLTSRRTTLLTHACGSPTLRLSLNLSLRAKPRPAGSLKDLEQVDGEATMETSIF
# Experimental: (§2) Cell Lines. Studies were conducted with cell lines expressing rat (r) or human (h) Via, V1b, V2, or OT receptors. For the experiments with human receptors, human embryonic kidney (HEK)-flp-in cells stably expressing the lacZ-Zeocin™ fusion gene were used for expression of hV1a and hV1b. These cells were designed for use with the Flp-In™ expression vector containing the gene of interest (here hV1a or hV1b) and the Flp recombinase expression plasmid, pOG44. For hV2 and hOTR, HEK-293 cells transiently expressing hV2 were used.
# Cell Maintenance. […]
# (§3) Functional Cell-Based Assays. To detect activity generated by binding of the test compounds to endogenous rV1a receptors or the stably expressed hV1a receptors, Fluorometric Imaging Plate Reader (FL1PR) calcium assays were performed. Briefly, real-time fluorescence of an intracellular calcium-sensitive dye was measured immediately upon addition of the test compound at various concentrations. […] Expression of the luciferase gene was determined after 5-h incubation with various concentrations of test compound. […] For V1a receptor response, area under the curve of the real-time calcium traces, expressed as relative fluorescence units, was determined. […]
# [4] = Tolerability in healthy monkeys; assay type: in vivo, cynomolgus monkey; details: non-human primates
# Experimental: Clinical observations were made before and after dosing. IV administration
# The data reported herein were collected over 19 dosing sessions of four animals each, using a total of six monkeys. Animals were repeat dosed in a crossover design with at least one animal receiving vehicle for each round; the animal receiving vehicle was varied between rounds. A 48- to 72-h washout period was used between dosing sessions. Animals were observed by camera for ~1 h before dosing (covering the baseline period) and up to 3 h after dosing.
# hV1b receptor = molecular target: T2, hV1b receptor (Homo sapiens, UniProt P47901); assay: Luciferase reporter gene assay, human V1b; details: read-out: % MPE
# T2 sequence (P47901 1-424): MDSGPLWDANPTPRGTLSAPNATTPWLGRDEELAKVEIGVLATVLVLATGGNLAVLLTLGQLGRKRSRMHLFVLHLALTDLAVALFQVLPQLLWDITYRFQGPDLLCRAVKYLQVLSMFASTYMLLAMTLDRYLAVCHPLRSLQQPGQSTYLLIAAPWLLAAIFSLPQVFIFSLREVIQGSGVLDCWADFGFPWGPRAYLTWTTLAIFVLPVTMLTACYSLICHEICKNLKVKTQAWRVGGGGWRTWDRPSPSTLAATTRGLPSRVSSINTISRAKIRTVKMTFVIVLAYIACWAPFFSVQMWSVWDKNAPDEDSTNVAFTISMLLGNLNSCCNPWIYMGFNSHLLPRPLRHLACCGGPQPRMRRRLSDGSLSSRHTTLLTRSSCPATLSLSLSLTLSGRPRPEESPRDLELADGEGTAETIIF
# Experimental: as §2
# Cell Maintenance. […]
# as §3
# [5] = Metabolite pattern (M1, M5) in human plasma after i.v. infusion and s.c. injection; assay type: in vivo
# Experimental: as §1
# In some instances, an objective of the study was to investigate metabolite pattern of Compound 1 in plasma and urine.
# Due to analytical method interference, it was not possible to analyses for metabolites in human urine. After i.v. administration, the metabolite M1 was present only at low concentrations in one subject in the male and 4 subjects in the female dose group 0.6 mg, while it was present in all females and 5 of the 6 males in the 0.9 mg dose group, albeit with few exceptions below LOQ (FIG. 44, panel A).
# [6] = M1 formation, subcutaneous infusion in mini-pigs; parameters: species or system mini-pig; details: minipig, in vivo, sc, s.c. infusion
compound,measurement,setting,value
"CC[C@H](C)[C@@H]1NC(=O)[C@H](Cc2ccccc2)NC(=O)[C@@H](N)CSSC[C@@H](C(=O)N2CCC[C@H]2C(=O)N[C@@H](CCNC(=O)[C@@H](N)CCCCNC(=O)[C@H](CCCCNC(C)=O)NC(=O)CC[C@H](NC(=O)[C@H](CCCNC(=N)N)NC(=O)[C@@H]2CCCN2C(=O)[C@H](C)NC(=O)[C@H](CC(N)=O)NC(=O)[C@H](CCC(N)=O)NC(=O)[C@H](Cc2ccccc2)NC(=O)[C@@H](Cc2ccc(OC)cc2)NC(=O)Cc2ccccc2)C(N)=O)C(=O)NCC(N)=O)NC(=O)[C@H](CC(N)=O)NC(=O)[C@H](CCC(N)=O)NC1=O [Compound 1, Glycinamide, L-cysteinyl-L-phenylalanyl-L-isoleucyl-L-glutaminyl-L-asparaginyl-L-cysteinyl-L-prolyl-N4-(phenylacetyl-O-methyl-D-tyrosyl-L-phenylalanyl-L-glutaminyl-L-asparaginyl-L-alanyl-L-prolyl-L-arginyl-L-isoglutamyl-N5-acetyl-L-lysyl-L-ε-lysyl)-L-2,4-diaminobutyryl-, cyclic (1→6)-disulfide] (I: H-CFIQNCP[Dab]G-NH2 / II: PhAc-[dY](Me)FQNAPR[isoGln]K(Ac)[εLys]; disulfide I:1-I:6; amide I:8-II:C)",metabolised,[1],80 to 90%
same,animals with local reaction at injection site,[2]; SC 4 and 20 mg/kg,three of the six
same,tolerability,[2]; SC bolus,well tolerated
same,bodyweight gain,"[2]; SC, four administrations up to 20 mg/kg",did not influence bodyweight gain
same,deaths,"[2]; SC, up to 20 mg/kg",no deaths occurred
same,tolerability,"[2]; single SC, conscious rats, all tested dose levels",well tolerated at all tested dose levels
same,tolerability,[2]; single-dose IV bolus (cassette),well tolerated
same,dose excreted,[3]; iv,< 10%
same,dose excreted,[3]; sc,< 5%
same,"amount excreted in urine, 4-8 hours",[3]; i.v. 0.1 mg,about 3 μg
same,"amount excreted in urine, 4-8 hours",[3]; i.v. 0.3 mg,~9 µg
same,"amount excreted in urine, 4-8 hours",[3]; i.v. 0.45 mg,~16 µg
same,"amount excreted in urine, 4-8 hours",[3]; i.v. 0.6 mg,~24 µg
same,"amount excreted in urine, 4-8 hours",[3]; i.v. 0.9 mg,~37 µg
same,"amount excreted in urine, first 4 hours","[3]; s.c. 0.1 mg, 1st administration",about 2 μg
same,"amount excreted in urine, first 4 hours","[3]; s.c. 0.1 mg, 5th administration",about 0.3 μg
same,"amount excreted in urine, first 4 hours","[3]; s.c. 0.3 mg, 1st administration",~3 µg
same,"amount excreted in urine, first 4 hours","[3]; s.c. 0.3 mg, 5th administration",~1.5 µg
same,Emax,rV1b receptor,97%
same,effect on body temperature,[4],no apparent Compound 1-related effect on body temperature
same,tolerability,[4]; single-dose SC and IV bolus,well tolerated
same,Emax,hV1b receptor,72%
same,half-life,[5]; i.v.,~4 h
same,half-life,[5]; s.c.,about 2 hours
same,conversion of Compound 1 to M1,"[5]; s.c. (bolus) injection, human",80-90%
same,metabolised,[6],< 20%
